The text below walks through data of patent publication US20250388582A1, “NOVEL BICYCLIC HETEROARYL COMPOUND AND USE THEREOF” (ILDONG PHARMACEUTICAL CO., LTD., priority 2022, published 2025).

In the assay the target is T1, human GST-PIKFYVE (Homo sapiens, UniProt Q9Y2I7).
T1 construct: GST; purchased Carna biosciences 11-118
T1 sequence (Q9Y2I7 whole entry): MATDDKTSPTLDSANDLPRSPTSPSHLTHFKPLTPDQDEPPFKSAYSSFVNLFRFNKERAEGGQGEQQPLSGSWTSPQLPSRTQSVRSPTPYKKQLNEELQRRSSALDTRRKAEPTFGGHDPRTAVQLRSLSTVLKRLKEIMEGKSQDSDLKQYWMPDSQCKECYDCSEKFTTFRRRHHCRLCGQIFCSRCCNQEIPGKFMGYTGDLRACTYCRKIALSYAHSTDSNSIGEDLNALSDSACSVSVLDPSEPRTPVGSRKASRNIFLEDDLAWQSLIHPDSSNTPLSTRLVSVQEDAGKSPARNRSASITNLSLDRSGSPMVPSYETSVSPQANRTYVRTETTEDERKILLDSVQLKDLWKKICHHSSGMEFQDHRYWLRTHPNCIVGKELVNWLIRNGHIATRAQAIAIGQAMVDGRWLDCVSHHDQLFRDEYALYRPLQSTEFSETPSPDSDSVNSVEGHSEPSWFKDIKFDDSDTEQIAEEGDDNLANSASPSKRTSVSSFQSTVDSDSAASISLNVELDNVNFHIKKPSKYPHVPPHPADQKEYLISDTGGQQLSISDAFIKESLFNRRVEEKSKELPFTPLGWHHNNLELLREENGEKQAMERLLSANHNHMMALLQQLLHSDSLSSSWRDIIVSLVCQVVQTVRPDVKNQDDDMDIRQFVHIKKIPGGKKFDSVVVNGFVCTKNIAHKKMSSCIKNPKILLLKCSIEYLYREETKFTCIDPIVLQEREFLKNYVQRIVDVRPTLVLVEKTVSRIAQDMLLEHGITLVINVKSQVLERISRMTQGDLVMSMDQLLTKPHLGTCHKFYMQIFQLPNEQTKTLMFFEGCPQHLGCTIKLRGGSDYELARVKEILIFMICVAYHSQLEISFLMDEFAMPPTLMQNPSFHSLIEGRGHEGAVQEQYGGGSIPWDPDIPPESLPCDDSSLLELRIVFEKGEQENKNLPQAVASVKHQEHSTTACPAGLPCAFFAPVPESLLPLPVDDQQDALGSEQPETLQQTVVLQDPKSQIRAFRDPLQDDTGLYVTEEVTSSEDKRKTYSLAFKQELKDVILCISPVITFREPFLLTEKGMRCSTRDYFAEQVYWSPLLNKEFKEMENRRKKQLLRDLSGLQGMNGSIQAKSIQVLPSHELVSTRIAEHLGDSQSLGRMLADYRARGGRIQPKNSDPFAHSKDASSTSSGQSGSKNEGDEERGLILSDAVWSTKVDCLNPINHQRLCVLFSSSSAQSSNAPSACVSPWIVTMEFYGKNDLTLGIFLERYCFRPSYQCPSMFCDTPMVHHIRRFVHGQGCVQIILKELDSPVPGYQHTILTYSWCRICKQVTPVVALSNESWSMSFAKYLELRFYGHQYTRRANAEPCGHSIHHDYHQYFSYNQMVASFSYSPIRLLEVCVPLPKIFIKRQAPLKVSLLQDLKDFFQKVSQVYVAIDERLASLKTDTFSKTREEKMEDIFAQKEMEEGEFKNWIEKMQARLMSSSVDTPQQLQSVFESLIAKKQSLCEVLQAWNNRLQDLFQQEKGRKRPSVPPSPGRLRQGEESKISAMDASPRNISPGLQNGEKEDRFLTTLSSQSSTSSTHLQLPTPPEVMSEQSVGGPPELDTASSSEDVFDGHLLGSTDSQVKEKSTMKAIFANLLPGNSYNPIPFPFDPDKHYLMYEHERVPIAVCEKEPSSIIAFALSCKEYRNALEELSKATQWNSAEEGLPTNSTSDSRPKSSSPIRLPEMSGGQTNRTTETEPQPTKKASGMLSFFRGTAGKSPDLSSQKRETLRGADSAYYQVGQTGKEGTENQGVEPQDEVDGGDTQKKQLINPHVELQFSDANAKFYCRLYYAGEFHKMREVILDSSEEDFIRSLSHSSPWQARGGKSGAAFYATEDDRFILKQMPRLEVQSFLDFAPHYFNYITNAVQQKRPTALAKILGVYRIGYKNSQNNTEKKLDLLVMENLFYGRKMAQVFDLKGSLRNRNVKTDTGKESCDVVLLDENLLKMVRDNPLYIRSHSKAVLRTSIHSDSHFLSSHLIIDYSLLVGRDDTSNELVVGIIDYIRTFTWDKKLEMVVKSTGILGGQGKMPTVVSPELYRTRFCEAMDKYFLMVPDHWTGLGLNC
Kind of assay: ADP-Glo kinase assay, enzyme inhibition activity against human PIKFYVE (Carna biosciences). The assay is classed as biochemical. Conditions: inhibitory activity at final compound concentration 10 nM; 1 hour at room temperature. As to the method:
The enzyme inhibition activity values for the compounds according to Examples against human PIKFYVE were calculated using the ADP-Glo™ kinase assay service of Carna biosciences, Inc. The enzyme activity evaluation method provided by Carna biosciences Inc., is shown below.
Enzyme inhibition activity was evaluated by reacting the compounds according to Examples with human GST-PIKFYVE (11-118, Carna biosciences), which was purified using glutathione Sepharose chromatography. The reaction buffer used was composed of 50 mmol/L MOPS, 1 mmol/L DTT, and pH 7.2, and all reactions of the test distilled water were performed in the buffer.
Compounds were prepared as solutions in 100% DMSO as 100× stocks and adjusted to have a final sample concentration of 10 nM.
The substrate-enzyme reaction for PIKFYVE was performed by mixing 5 μL human GST-PIKFYVE, 5 μL compounds according to Examples, 5 μL enzyme substrate, and 5 μL purified ATP and reacting for 1 hour at room temperature. After the substrate-enzyme reaction, 20 μL ADP-Glo™ Reagent was added and reacted at room temperature for 40 minutes, then 40 μL Kinase Detection Reagent was added and reacted at room temperature for 40 minutes.
After completion of the reaction, the degree of enzyme activity inhibition was measured by luminescence. The fluorescence of the enzyme activity in the solvent control group […] was set to 100%, and the fluorescence of the enzyme activity in the solvent control group without compound treatment was set to 0%. The inhibitory activity of each compound according to Examples was calculated based on these values.
Turning to `Cc1ccc(Nc2nc(N3CCOCC3)nc3c2ncn3/N=C/c2cccc(C)c2)cc1` [Example 181, (E)-9-((3-methylbenzylidene)amino)-2-morpholino-N-(p-tolyl)-9H-purin-6-amine], the “ADP-Glo kinase assay (%, 10 nM)” value was 53.92%.

Regarding `Cc1cccc(Nc2nc(N3CCOCC3)nc3c2ncn3/N=C/c2cccnc2)c1` [Example 190, (E)-2-morpholino-9-((pyridin-3-ylmethylene)amino)-N-(m-tolyl)-9H-purin-6-amine], the “ADP-Glo kinase assay (%, 10 nM)” value was found to be 78.59%.

Consider `Cc1cccc(/C=N/Nc2nc(N3CCOCC3)nc3c2ncn3CC(=O)c2ccc(N3CCOCC3)cc2N2CCOCC2)c1` [Example 51, (E)-1-(2,4-dimorpholinophenyl)-2-(6-(2-(3-methylbenzylidene)hydrazinyl)-2-morpholino-9H-purin-9-yl)ethan-1-one], for which the “ADP-Glo kinase assay (%, 10 nM)” value was determined as 66.19%.

Consider `COc1cccc(/C=N/n2cnc3c(Nc4ccncc4)nc(N4CCOCC4)nc32)c1` [Example 172, (E)-9-((3-methoxybenzylidene)amino)-2-morpholino-N-(pyridin-4-yl)-9H-purin-6-amine], for which the “ADP-Glo kinase assay (%, 10 nM)” value is listed as 90.96%.

For the compound `Cc1cccc(/C=N/n2cnc3c(Nc4cc(C)no4)nc(N4CCOCC4)nc32)c1` [Example 198, (E)-3-methyl-N-(9-((3-methylbenzylidene)amino)-2-morpholino-9H-purin-6-yl)isoxazol-5-amine], the “ADP-Glo kinase assay (%, 10 nM)” value was 75.59%.

As for `COc1ccc(Nc2nc(N3CCOCC3)nc3c2ncn3/N=C/c2cccc(C)c2)cc1` [Example 178, (E)-N-(4-methoxyphenyl)-9-((3-methylbenzylidene)amino)-2-morpholino-9H-purin-6-amine], the “ADP-Glo kinase assay (%, 10 nM)” value stood at 55.44%.

Consider `Cc1cccc(/C=N/n2cnc3c(Nc4cccnc4C)nc(N4CCOCC4)nc32)c1` [Example 194, (E)-9-((3-methylbenzylidene)amino)-N-(2-methylpyridin-3-yl)-2-morpholino-9H-purin-6-amine], for which the “ADP-Glo kinase assay (%, 10 nM)” value is 61.38%.

As to `Cc1cccc(/C=N/Nc2nc(N3CCOCC3)nc3c2ncn3C2CCN(C(=O)c3ccccn3)CC2)c1` [Example 94, (E)-(4-(6-(2-(3-methylbenzylidene)hydrazinyl)-2-morpholino-9H-purin-9-yl)piperidin-1-yl)(pyridin-2-yl)methanone], the “ADP-Glo kinase assay (%, 10 nM)” value worked out at 58.50%.

On to `COc1cccc(Nc2nc(N3CCOCC3)nc3c2ncn3/N=C/c2cccc(C)c2)c1` [Example 184, (E)-N-(3-methoxyphenyl)-9-((3-methylbenzylidene)amino)-2-morpholino-9H-purin-6-amine], for which the “ADP-Glo kinase assay (%, 10 nM)” value was 55.65%.

With `Cc1cccc(/C=N/Nc2nc(N3CCOCC3)nc3c2ncn3C2CN(C(=O)c3cccnc3)C2)c1` [Example 82, (E)-3-(6-(2-(3-methylbenzylidene)hydrazinyl)-2-morpholino-9H-purin-9-yl)azetidin-1-yl (pyridin-3-yl)methanone], the “ADP-Glo kinase assay (%, 10 nM)” value is 60.95%.

Take `COc1ccc(/C=N/n2cnc3c(Nc4ccncc4)nc(N4CCOCC4)nc32)cc1` [Example 173, (E)-9-((4-methoxybenzylidene)amino)-2-morpholino-N-(pyridin-4-yl)-9H-purin-6-amine]: the “ADP-Glo kinase assay (%, 10 nM)” value was 73.94%.

Turning to `Cc1cccc(/C=N/n2c(C)nc3c(OCCc4ccccn4)nc(N4CCOCC4)nc32)c1` [Example 208, (E)-N-8-methyl-2-morpholino-(6-(2-pyridin-2-yl)ethoxy)-9H-purin-9-yl-1-(m-tolyl)methanimine], the “ADP-Glo kinase assay (%, 10 nM)” value amounted to 71.38%.

In the case of `Cc1cccc(-c2ccn(-c3nc(N4CCOCC4)nc4c3ncn4-c3cccc(OC4CC4)c3)n2)c1` [Example 138, 4-(9-(3-cyclopropoxyphenyl)-6-(3-(m-tolyl)-1H-pyrazol-1-yl)-9H-purin-2-yl)morpholine], the “ADP-Glo kinase assay (%, 10 nM)” value was determined as 64.23%.

For the compound `Cc1ccc(/C=N/n2cnc3c(Nc4ccncc4)nc(N4CCOCC4)nc32)cc1` [Example 168, (E)-9-((4-methylbenzylidene)amino)-2-morpholino-N-(pyridin-4-yl)-9H-purin-6-amine], the “ADP-Glo kinase assay (%, 10 nM)” value was 87.26%.
